Test results published in US9988390B2, “Pyrimidone derivatives and their use in the treatment, amelioration or prevention of a viral disease” (F. Hoffmann-La Roche AG, priority 2015, dated 2018).
Counter-ions that a name gives are not always drawn.

tested on: influenza A virus (A/WSN/33 NanoLuc reporter virus) in A549 cells; assay: microbe, parasite or virus in culture; type: cell-based; settings: A549, 24 h, read-out: IC50 values of viral replication inhibition in a cell-based Luciferase Reporter Assay (LRA)

Q: CC(C)N1C[C@H](C(c2ccccc2)c2ccccc2)n2c(NCc3ccccc3)nc(=O)c(O)c2C1=O [Example 1a-1, (4S)-4-Benzhydryl-6-(benzylamino)-9-hydroxy-2-isopropyl-3,4-dihydropyrazino[1,2-c]pyrimidine-1,8-dione] was tested. Which IC50 did it give?
A: Its IC50 is 153 nM.

Q: With COc1ccc(CNc2nc(=O)c(O)c3n2[C@@H](C(c2ccccc2)c2ccccc2)CN(C(C)C)C3=O)cc1 [Example 1a-2, (4S)-4-Benzhydryl-9-hydroxy-2-isopropyl-6-[(4-methoxyphenyl)methylamino]-3,4-dihydropyrazino[1,2-c]pyrimidine-1,8-dione formate] as the compound, how does the IC50 read?
A: Its IC50 is 2070 nM.

Q: Which IC50 does the source give for CC(C)N1C[C@H](C(c2ccccc2)c2ccccc2)n2c(N)nc(=O)c(O)c2C1=O [Example 1a-3, (4S)-6-Amino-4-benzhydryl-9-hydroxy-2-isopropyl-3,4-dihydropyrazino[1,2-c]pyrimidine-1,8-dione] here?
A: Its IC50 is greater than 50000 nM.

Q: For COc1nc(=O)c(O)c2n1[C@@H](C(c1ccccc1)c1ccccc1)CN(C(C)C)C2=O [Example 1a-4, (4S)-4-Benzhydryl-9-hydroxy-2-isopropyl-6-methoxy-3,4-dihydropyrazino[1,2-c]pyrimidine-1,8-dione], which IC50 is on record?
A: Its IC50 is 14 nM.

Q: For CC(C)N1C[C@H](C2c3ccccc3CCc3ccccc32)n2c(N)nc(=O)c(O)c2C1=O [Example 1a-5, (4S)-6-Amino-4-(10,11-dihydro-5H-dibenzo[a,d][7]annulen-5-yl)-9-hydroxy-2-(propan-2-yl)-3,4-dihydro-2H-pyrazino[1,2-c]pyrimidine-1,8-dione], which IC50 is on record?
A: The IC50 was greater than 50000 nM.

Q: With CC(C)N1C[C@H](C(c2ccccc2)c2ccccc2)n2c(O)nc(=O)c(O)c2C1=O [Example 1a-6, (4S)-4-Benzhydryl-6,9-dihydroxy-2-isopropyl-3,4-dihydropyrazino[1,2-c]pyrimidine-1,8-dione] as the compound, how does the IC50 read?
A: Its IC50 is 218 nM.

Q: With CCOc1nc(=O)c(O)c2n1[C@@H](C(c1ccccc1)c1ccccc1)CN(C(C)C)C2=O [Example 1a-7, (4S)-4-Benzhydryl-6-ethoxy-9-hydroxy-2-isopropyl-3,4-dihydropyrazino[1,2-c]-pyrimidine-1,8-dione] as the compound, how does the IC50 read?
A: Its IC50 is 69 nM.

Q: For COc1nc(=O)c(O)c2n1[C@@H](C1c3ccccc3CCc3ccccc31)CN(C(C)C)C2=O [Example 1a-8, (4S)-4-(10,11-Dihydro-5H-dibenzo[a,d][7]annulen-5-yl)-9-hydroxy-6-methoxy-2-(propan-2-yl)-3,4-dihydro-2H-pyrazino[1,2-c]pyrimidine-1,8-dione], which IC50 is on record?
A: The IC50 was 6 nM.

Q: With COc1nc(=O)c(O)c2n1[C@@H](C1c3ccccc3CCc3ccccc31)CN(C)C2=O [Example 1a-9, (4S)-4-(10,11-Dihydro-5H-dibenzo[a,d][7]annulen-5-yl)-9-hydroxy-6-methoxy-2-methyl-3,4-dihydro-2H-pyrazino[1,2-c]pyrimidine-1,8-dione] as the compound, how does the IC50 read?
A: Its IC50 is 6 nM.

Q: For CC(C)N1C[C@H](C2c3ccccc3CCc3ccccc32)n2c(O)nc(=O)c(O)c2C1=O [Example 1a-10, (4S)-4-(10,11-Dihydro-5H-dibenzo[a,d][7]annulen-5-yl)-6,9-dihydroxy-2-(propan-2-yl)-3,4-dihydro-2H-pyrazino[1,2-c]pyrimidine-1,8-dione], which IC50 is on record?
A: Its IC50 is 98 nM.

Q: With CN1C[C@H](C2c3ccccc3CCc3ccccc32)n2c(O)nc(=O)c(O)c2C1=O [Example 1a-11, (4S)-4-(10,11-Dihydro-5H-dibenzo[a,d][7]annulen-5-yl)-6,9-dihydroxy-2-methyl-3,4-dihydro-2H-pyrazino[1,2-c]pyrimidine-1,8-dione] as the compound, how does the IC50 read?
A: Its IC50 is 128 nM.

Q: With CCOc1nc(=O)c(O)c2n1[C@@H](C1c3ccccc3CCc3ccccc31)CN(C(C)C)C2=O [Example 1a-12, (4S)-4-(10,11-Dihydro-5H-dibenzo[a,d][7]annulen-5-yl)-6-ethoxy-9-hydroxy-2-(propan-2-yl)-3,4-dihydro-2H-pyrazino[1,2-c]pyrimidine-1,8-dione] as the compound, how does the IC50 read?
A: Its IC50 is 24 nM.

Q: With CC(C)N1C[C@H](C(c2ccccc2)c2ccccc2)n2c(OCc3ccccc3)nc(=O)c(O)c2C1=O [Example 1a-13, (4S)-4-Benzhydryl-6-benzyloxy-9-hydroxy-2-isopropyl-3,4-dihydropyrazino[1,2-c]pyrimidine-1,8-dione] as the compound, how does the IC50 read?
A: Its IC50 is 8320 nM.

Q: With CCCCOc1nc(=O)c(O)c2n1[C@@H](C(c1ccccc1)c1ccccc1)CN(C(C)C)C2=O [Example 1a-15, (4S)-4-Benzhydryl-6-butoxy-9-hydroxy-2-isopropyl-3,4-dihydropyrazino[1,2-c]pyrimidine-1,8-dione] as the compound, how does the IC50 read?
A: The IC50 was 15300 nM.

Q: How did the IC50 turn out when CC(=O)Nc1nc(=O)c(O)c2n1[C@@H](C(c1ccccc1)c1ccccc1)CN(C(C)C)C2=O [Example 1a-16, N-[(4S)-4-Benzhydryl-9-hydroxy-2-isopropyl-1,8-dioxo-3,4-dihydropyrazino[1,2-c]pyrimidin-6-yl]acetamide] was run?
A: The IC50 was 23 nM.

Q: With CC(C)N1C[C@H](C(c2ccccc2)c2ccccc2)n2c(NS(C)(=O)=O)nc(=O)c(O)c2C1=O [Example 1a-17, N-[(4S)-4-benzhydryl-9-hydroxy-2-isopropyl-1,8-dioxo-3,4-dihydropyrazino[1,2-c]-pyrimidin-6-yl]methanesulfonamide] as the compound, how does the IC50 read?
A: The IC50 was 1670 nM.

Q: COc1nc(=O)c(O)c2n1C(C1c3cccc(F)c3CCc3c(F)cccc31)CN(C(C)C)C2=O (stereo not drawn) [Example 1a-20, 4-(1,9-Difluoro-10,11-dihydro-5H-dibenzo[a,d][7]annulen-5-yl)-9-hydroxy-6-methoxy-2-(propan-2-yl)-3,4-dihydro-2H-pyrazino[1,2-c]pyrimidine-1,8-dione] was tested. Which IC50 did it give?
A: Its IC50 is 16 nM.

Q: With COc1nc(=O)c(O)c2n1[C@@H](C1c3cccc(F)c3CCc3c(F)cccc31)[C@H](C)N(C)C2=O [Example 1a-21, (3S,4S)-4-(1,9-Difluoro-10,11-dihydro-5H-dibenzo[a,d][7]annulen-5-yl)-9-hydroxy-6-methoxy-2,3-dimethyl-3,4-dihydro-2H-pyrazino[1,2-c]pyrimidine-1,8-dione] as the compound, how does the IC50 read?
A: Its IC50 is 15 nM.

Q: How did the IC50 turn out when CC(C)N1C[C@H](C(c2ccccc2)c2ccccc2)n2c(c(O)c(=O)n(C)c2=O)C1=O [Example 1b-1, (4S)-4-Benzhydryl-9-hydroxy-2-isopropyl-7-methyl-3,4-dihydropyrazino[1,2-c]pyrimidine-1,6,8-trione] was run?
A: Its IC50 is 1660 nM.

Q: With CC(C)N1C[C@H](C(c2ccccc2)c2ccccc2)n2c(c(O)c(=O)n(Cc3ccccc3)c2=O)C1=O [Example 1b-2, (4S)-4-Benzhydryl-7-benzyl-9-hydroxy-2-isopropyl-3,4-dihydropyrazino[1,2-c]pyrimidine-1,6,8-trione] as the compound, how does the IC50 read?
A: Its IC50 is 4300 nM.

Q: For CC(C)N1C[C@H](C2c3ccccc3CCc3ccccc32)n2c(NS(C)(=O)=O)nc(=O)c(O)c2C1=O [Ia-22, N-[(4S)-4-(6,11-dihydro-5H-dibenzo[1,2-a:2′,1′-d][7]annulen-11-yl)-9-hydroxy-2-isopropyl-1,8-dioxo-3,4-dihydropyrazino[1,2-c]pyrimidin-6-yl]methanesulfonamide], which IC50 is on record?
A: Its IC50 is 144 nM.

Q: With CSc1nc(=O)c(O)c2n1[C@@H](C(c1ccccc1)c1ccccc1)CN(C(C)C)C2=O [Ia-23, (4S)-4-Benzhydryl-9-hydroxy-2-isopropyl-6-methylsulfanyl-3,4-dihydropyrazino[1,2-c]pyrimidine-1,8-dione] as the compound, how does the IC50 read?
A: The IC50 was 36 nM.

Q: Which IC50 does the source give for CCSc1nc(=O)c(O)c2n1[C@@H](C(c1ccccc1)c1ccccc1)CN(C(C)C)C2=O [Ia-24, (4S)-4-Benzhydryl-6-ethylsulfanyl-9-hydroxy-2-isopropyl-3,4-dihydropyrazino[1,2-c]pyrimidine-1,8-dione] here?
A: The IC50 was 11900 nM.

Q: For CC(C)N1CC(C2c3cccc(F)c3CCc3c(F)cccc32)n2c(O)nc(=O)c(O)c2C1=O (stereo not drawn) [Ia-25, 4-(4,7-Difluoro-6,11-dihydro-5H-dibenzo[1,3-b:3′,1′-e][7]annulen-11-yl)-6,9-dihydroxy-2-isopropyl-3,4-dihydropyrazino[1,2-c]pyrimidine-1,8-dione], which IC50 is on record?
A: Its IC50 is 86 nM.

Q: CC(C)N1C[C@H](C(c2ccccc2)c2ccccc2)n2c([S+](C)[O-])nc(=O)c(O)c2C1=O (stereo partly drawn) [Ia-26, (4S)-4-Benzhydryl-9-hydroxy-2-isopropyl-6-methylsulfinyl-3,4-dihydropyrazino[1,2-c]pyrimidine-1,8-dione] was tested. Which IC50 did it give?
A: The IC50 was 127 nM.

Q: Which IC50 does the source give for CC(C)N1C[C@H](C(c2ccccc2)c2ccccc2)n2cnc(=O)c(O)c2C1=O [Ia-27, (4S)-4-Benzhydryl-9-hydroxy-2-isopropyl-3,4-dihydropyrazino[1,2-c]pyrimidine-1,8-dione] here?
A: The IC50 was 232 nM.

Q: For CC(C)N1C[C@H](C(c2ccccc2)c2ccccc2)n2c(S)nc(=O)c(O)c2C1=O [Ia-28, (4S)-4-benzhydryl-9-hydroxy-2-isopropyl-6-sulfanyl-3,4-dihydropyrazino[1,2-c]pyrimidine-1,8-dione], which IC50 is on record?
A: Its IC50 is 61 nM.

Q: How did the IC50 turn out when CC(C)N1C[C@H](C2c3ccccc3CCc3ccccc32)n2cnc(=O)c(O)c2C1=O [Ia-29, (4S)-4-(6,11-Dihydro-5H-dibenzo[2,1-b:1′,2′-e][7]annulen-11-yl)-9-hydroxy-2-isopropyl-3,4-dihydropyrazino[1,2-c]pyrimidine-1,8-dione] was run?
A: The IC50 was 22 nM.

Q: For CSc1nc(=O)c(O)c2n1[C@@H](C1c3ccccc3CCc3ccccc31)CN(C(C)C)C2=O [Ia-30, (4S)-4-(6,11-Dihydro-5H-dibenzo[2,1-b:1′,2′-e][7]annulen-11-yl)-9-hydroxy-2-isopropyl-6-methylsulfanyl-3,4-dihydropyrazino[1,2-c]pyrimidine-1,8-dione], which IC50 is on record?
A: The IC50 was 17 nM.

same assay, conditions: A549, isomers identified by X-ray analysis, read-out: IC50

Q: How did the IC50 turn out when COc1nc(=O)c(O)c2n1[C@@H]([C@H]1c3ccccc3CSc3ccccc31)CN(C(C)C)C2=O (single isomer, unassigned) [Example 14] was run?
A: Its IC50 is 2 nM.

Q: For COc1nc(=O)c(O)c2n1[C@H]([C@@H]1c3ccccc3CSc3ccccc31)CN(C(C)C)C2=O (single isomer, unassigned) [Example 15], which IC50 is on record?
A: Its IC50 is 34 nM.

Q: Which IC50 does the source give for COc1nc(=O)c(O)c2n1[C@@H]([C@@H]1c3ccccc3CSc3ccccc31)CN(C(C)C)C2=O (single isomer, unassigned) [Example 16] here?
A: The IC50 was 4 nM.

Q: For COc1nc(=O)c(O)c2n1[C@H]([C@H]1c3ccccc3CSc3ccccc31)CN(C(C)C)C2=O (single isomer, unassigned) [Example 17], which IC50 is on record?
A: Its IC50 is 28 nM.
